Patent publication US6780414B2 (priority 1998, dated 2004)
Like-named read-outs stand apart in the source and are kept apart here.

What was measured:
[1] = system: S. flexneri 2a strain 2457T; assay type: cell-based, Shigella flexneri 2a; conditions: 2457T + 1 mM supplement present only during the two hour invasion period
mxiA::lacZ = assay type: cell-based, S. flexneri 2a
spa47::lacZ = assay type: cell-based, S. flexneri 2a
[2] = system: representative virulence genes; assay type: cell-based, S. flexneri 2a
ipaB::lacZ = assay type: cell-based, S. flexneri 2a
BS103 = conditions: T84 monolayers, mean ± SEM
stable toxin (YST-I) = stable toxin (YST-I) (Yersinia enterocolitica, UniProt P07593); test: Ussing chamber assay, effect of cadaverine on YST-I; assay type: cell-based
Shiga toxin [3] = biological target: T1, Shiga toxin (Shigella dysenteriae, UniProt Q7BQ98+Q9FBI2); assay type: cell-based, Shigella dysenteriae 1
T1 sequence (Q9FBI2 23-315 limits assumed): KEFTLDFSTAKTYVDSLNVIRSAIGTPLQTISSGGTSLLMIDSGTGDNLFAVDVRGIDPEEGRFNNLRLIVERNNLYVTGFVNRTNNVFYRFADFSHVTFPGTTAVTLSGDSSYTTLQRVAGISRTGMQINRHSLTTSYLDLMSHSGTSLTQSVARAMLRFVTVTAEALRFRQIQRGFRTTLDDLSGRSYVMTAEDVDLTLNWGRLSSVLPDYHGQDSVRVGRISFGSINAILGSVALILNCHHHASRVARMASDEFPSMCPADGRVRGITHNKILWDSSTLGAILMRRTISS
T1 sequence (Q7BQ98 21-89 limits assumed): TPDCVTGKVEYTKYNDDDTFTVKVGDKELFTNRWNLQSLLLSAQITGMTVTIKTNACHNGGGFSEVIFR

ShET-1 and ShET-2 [4] = test: Fluid accumulation in ileal loops, effect of cadaverine; assay type: in vivo, Shigella flexneri 2a; conditions: cadaverine 400 μM unless otherwise indicated
cholera toxin = cholera toxin (Vibrio cholerae serotype O1, UniProt P01555+P01556); assay type: cell-based
Chain of cholera toxin (P01555 19-258 limits assumed): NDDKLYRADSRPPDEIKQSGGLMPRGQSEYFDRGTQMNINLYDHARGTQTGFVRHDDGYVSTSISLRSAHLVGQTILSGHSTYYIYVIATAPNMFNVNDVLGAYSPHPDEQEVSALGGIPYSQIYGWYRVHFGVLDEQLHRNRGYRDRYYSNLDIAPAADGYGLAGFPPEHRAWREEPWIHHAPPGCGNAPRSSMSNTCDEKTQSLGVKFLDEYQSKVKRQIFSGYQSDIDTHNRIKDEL
Chain of cholera toxin (P01556 22-124 limits assumed): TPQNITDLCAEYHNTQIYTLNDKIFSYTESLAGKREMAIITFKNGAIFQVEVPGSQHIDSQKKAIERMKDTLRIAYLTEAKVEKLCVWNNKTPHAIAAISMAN

Tsh-associated toxin = test: Ussing chamber assay, effect of cadaverine on Tsh-associated toxin; assay type: cell-based, avian pathogenic Escherichia coli; conditions: toxin mucosal side; cadaverine (400 μM) both sides
ShET-1 and ShET-2 [5] = assay type: cell-based, Shigella flexneri 2a
[6] = system: S. flexneri-induced PMN transepithelial migration; test: PMN transepithelial migration assay across T84 cell monolayers
Shiga toxin [7] = biological target: T1, Shiga toxin; conditions: cadaverine 400 μM unless otherwise indicated
stable toxin (YST-11) = test: Ussing chamber assay, effect of cadaverine on YST-11; assay type: cell-based, Yersinia enterocolitica; conditions: toxin mucosal side; cadaverine (400 μM) both sides
heat stable toxin (STa) = test: Ussing chamber assay, effect of cadaverine on heat stable toxin (STa); assay type: cell-based, enterotoxigenic Escherichia coli
[8] = system: cytolethal distending toxin; test: Ussing chamber assay, effect of cadaverine on cytolethal distending toxin; assay type: cell-based, Campylobacter jejuni
[9] = cadaverine 400 μM unless otherwise indicated
[10] = toxin mucosal side, cadaverine (400 μM) both sides

Compound: O=C(O)c1ccc[n+]([C@@H]2O[C@H](COP(=O)(O)O)[C@@H](O)[C@H]2O)c1 [nicotinic acid mononucleotide]
- % FIREWORKS [1]: 17%
- % INVASION [1]: 82%

Compound: O=C(O)c1cccnc1 [nicotinic acid]
- % FIREWORKS [1]: 17%
- % INVASION [1]: 85%

Compound: O=C(O)c1cccnc1C(=O)O [quinolinate]
- Miller Units of activity (mxiA::lacZ): 196.5 ± 2.0 Miller Units
- Miller Units of activity (spa47::lacZ): 312.3 ± 6.5 Miller Units
- reduction of virulence gene expression [2]: about 50%
- % FIREWORKS [1]: 0%
- % INVASION [1]: 0.5%
- Miller Units of activity (ipaB::lacZ): 140.5 ± 2.9 Miller Units

Compound: NCCCCCN [cadaverine, 1,5-diaminopentane]
- % Association BS103 (BS103; 100 μM cadaverine): 4.37 ± 1.64%
- % Internalization BS103 (BS103; 100 μM cadaverine): 0.08 ± 0.02%
- % Association BS103 (BS103; 300 μM cadaverine): 3.14 ± 0.75%
- % Internalization BS103 (BS103; 300 μM cadaverine): 0.03 ± 0.01%
- % Association BS103 (BS103; 500 μM cadaverine): 2.11 ± 0.90%
- % Internalization BS103 (BS103; 500 μM cadaverine): 0.01 ± 0.01%
- Effect of Cadaverine, enterotoxicity in Ussing chambers (stable toxin (YST-I); [9]): completely
- ΔIsc + cadaverine (stable toxin (YST-I); [10]): −11.0
- Effect of Cadaverine, enterotoxicity in Ussing chambers (Shiga toxin [3]; [9]): blocked;
- ΔIsc + cadaverine (Shiga toxin [3]; [10]): −13.6
- Effect of Cadaverine, fluid accumulation in ileal loops (ShET-1 and ShET-2 [4]): both completely
- Effect of Cadaverine, enterotoxicity in Ussing chambers (cholera toxin; [9]): none
- ΔIsc + cadaverine (cholera toxin; [10]): 70.9
- ΔIsc + cadaverine (Tsh-associated toxin): 23.3
- Effect of Cadaverine, enterotoxicity in Ussing chambers (ShET-1 and ShET-2 [5]): blocked
- ΔIsc + cadaverine (ShET-1 and ShET-2 [5]): 2.7
- ΔIsc as % of the value in tissues not pretreated (ShET-1 and ShET-2 [5]): 40%
- ability of S. flexneri to promote PMN transepithelial migration ([6]; 2457T added basolaterally together with cadaverine 100, 300 and 500 μM (FIG. 3)): dose dependent decrease
- down regulation of S. flexneri-induced PMN transepithelial migration ([6]; T84 infected with 2457T 1 hr, then apical cadaverine 300 μM 30 min (FIG. 5)): 60%
- Effect of Cadaverine, cytotoxicity in Vero cells (Shiga toxin [7]): none
- ΔIsc + cadaverine (stable toxin (YST-11)): 32.4
- Effect of Cadaverine, enterotoxicity in Ussing chambers (heat stable toxin (STa); [9]): none
- ΔIsc + cadaverine (heat stable toxin (STa); [10]): 75.9
- Effect of Cadaverine, enterotoxicity in Ussing chambers [8, 9]: completely
- ΔIsc + cadaverine [8, 10]: −18.7
